What all share (test): KINOMEscan (ScanMAX) kinase profiling
Holding throughout (format): binding

The target of test [1] is T1, panel of 468 kinases (Homo sapiens, UniProt Q13131).
T1 construct: purchased KINOMEscan (ScanMAX) service
The following applies: AMPK-alpha1; 1 μM; read-out: % control.

In test [2] the target is T2, panel of 468 kinases (Homo sapiens, UniProt Q9NYL2).
T2 construct: purchased KINOMEscan (ScanMAX) service
The following applies: ZAK; 1 μM; read-out: % control.

For test [3], the target named is T3, panel of 468 kinases (Homo sapiens, UniProt Q14680).
T3 construct: purchased KINOMEscan (ScanMAX) service
The following applies: MELK; 1 μM; read-out: % control.

Test [4] addresses T4, panel of 468 kinases (Homo sapiens, UniProt P28482).
T4 construct: purchased KINOMEscan (ScanMAX) service
The note with it: ERK2; 1 μM; read-out: % control.

The target in test [5] is T5, panel of 468 kinases (Homo sapiens, UniProt Q8IVH8).
T5 construct: purchased KINOMEscan (ScanMAX) service
T5 sequence (Q8IVH8 1-894): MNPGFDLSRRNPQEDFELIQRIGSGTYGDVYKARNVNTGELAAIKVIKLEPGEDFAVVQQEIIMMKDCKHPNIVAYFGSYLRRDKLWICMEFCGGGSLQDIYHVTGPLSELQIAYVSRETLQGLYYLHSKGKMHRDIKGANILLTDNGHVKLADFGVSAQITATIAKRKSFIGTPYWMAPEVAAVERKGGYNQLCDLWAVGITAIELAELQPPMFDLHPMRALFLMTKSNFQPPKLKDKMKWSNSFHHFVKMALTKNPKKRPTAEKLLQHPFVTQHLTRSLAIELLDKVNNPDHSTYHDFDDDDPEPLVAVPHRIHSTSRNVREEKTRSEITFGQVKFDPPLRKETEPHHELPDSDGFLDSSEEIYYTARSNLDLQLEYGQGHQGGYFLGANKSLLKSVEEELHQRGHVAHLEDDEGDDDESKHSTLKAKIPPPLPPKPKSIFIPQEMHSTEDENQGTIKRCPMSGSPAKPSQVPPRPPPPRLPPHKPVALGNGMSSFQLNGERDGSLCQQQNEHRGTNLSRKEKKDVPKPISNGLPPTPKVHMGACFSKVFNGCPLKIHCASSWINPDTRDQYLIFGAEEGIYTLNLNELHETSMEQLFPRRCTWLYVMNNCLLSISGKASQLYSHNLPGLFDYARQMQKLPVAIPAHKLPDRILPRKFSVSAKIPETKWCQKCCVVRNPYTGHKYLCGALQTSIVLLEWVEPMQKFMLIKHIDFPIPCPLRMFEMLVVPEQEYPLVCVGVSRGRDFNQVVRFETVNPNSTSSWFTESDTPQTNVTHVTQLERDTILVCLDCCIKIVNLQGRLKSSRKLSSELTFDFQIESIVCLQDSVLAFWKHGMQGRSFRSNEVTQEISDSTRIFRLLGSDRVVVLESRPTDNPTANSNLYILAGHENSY
The note with it: MAP4K3; 1 μM; read-out: % control.

Test [6] addresses T6, panel of 468 kinases (Homo sapiens, UniProt P49759).
T6 construct: purchased KINOMEscan (ScanMAX) service
The note with it: CLK1; 1 μM; read-out: % control.

Test [7] has as its target T7, panel of 468 kinases (Homo sapiens, UniProt Q8TDR2).
T7 construct: purchased KINOMEscan (ScanMAX) service
The note with it: STK35; 1 μM; read-out: % control.

Test [8] addresses T8, panel of 468 kinases (Homo sapiens, UniProt P48736).
T8 construct: purchased KINOMEscan (ScanMAX) service
The note with it: PIK3CG; 1 μM; read-out: % control.

Test [9] deals with T9, panel of 468 kinases (Homo sapiens, UniProt Q14164).
T9 construct: purchased KINOMEscan (ScanMAX) service
T9 sequence (Q14164 1-716): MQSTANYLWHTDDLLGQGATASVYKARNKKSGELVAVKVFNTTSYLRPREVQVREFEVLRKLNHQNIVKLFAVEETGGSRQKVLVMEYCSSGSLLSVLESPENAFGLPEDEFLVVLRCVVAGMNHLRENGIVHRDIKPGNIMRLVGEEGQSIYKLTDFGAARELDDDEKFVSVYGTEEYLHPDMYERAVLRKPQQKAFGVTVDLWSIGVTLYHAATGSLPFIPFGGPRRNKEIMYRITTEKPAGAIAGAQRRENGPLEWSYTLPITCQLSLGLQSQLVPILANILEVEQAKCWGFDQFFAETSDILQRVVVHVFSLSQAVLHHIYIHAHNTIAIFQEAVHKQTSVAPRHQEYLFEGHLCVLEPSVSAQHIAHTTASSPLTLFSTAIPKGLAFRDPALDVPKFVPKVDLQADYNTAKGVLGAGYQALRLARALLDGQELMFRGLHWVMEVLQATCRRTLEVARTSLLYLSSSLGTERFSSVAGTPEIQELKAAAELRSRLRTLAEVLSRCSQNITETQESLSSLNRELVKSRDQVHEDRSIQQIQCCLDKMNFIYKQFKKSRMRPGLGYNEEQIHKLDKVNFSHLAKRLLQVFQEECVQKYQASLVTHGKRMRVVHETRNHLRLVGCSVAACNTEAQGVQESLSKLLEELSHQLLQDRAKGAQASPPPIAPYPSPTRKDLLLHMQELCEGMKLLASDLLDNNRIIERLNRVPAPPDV
The following applies: IKK-epsilon; 1 μM; read-out: % control.

Test [10] has as its target T10, panel of 468 kinases (Homo sapiens, UniProt P22607).
T10 construct: purchased KINOMEscan (ScanMAX) service
The following applies: FGFR3; 1 μM; read-out: % control.

The target of test [11] is T11, panel of 468 kinases (Homo sapiens, UniProt P07949, M918T).
T11 construct: purchased KINOMEscan (ScanMAX) service
The note with it: RET(M918T); 1 μM; read-out: % control.

In test [12] the target is T12, panel of 468 kinases (Homo sapiens, UniProt P24941).
T12 construct: purchased KINOMEscan (ScanMAX) service
The following applies: CDK2; 1 μM; read-out: % control.

Test [13] has as its target T13, panel of 468 kinases (Homo sapiens, UniProt Q9BUB5).
T13 construct: purchased KINOMEscan (ScanMAX) service
The following applies: MKNK1; 1 μM; read-out: % control.

We go through three molecules from patent US12479847B2 (DANA-FARBER CANCER INSTITUTE, INC., priority 2019, dated 2025).

T6 sequence (P49759 whole entry): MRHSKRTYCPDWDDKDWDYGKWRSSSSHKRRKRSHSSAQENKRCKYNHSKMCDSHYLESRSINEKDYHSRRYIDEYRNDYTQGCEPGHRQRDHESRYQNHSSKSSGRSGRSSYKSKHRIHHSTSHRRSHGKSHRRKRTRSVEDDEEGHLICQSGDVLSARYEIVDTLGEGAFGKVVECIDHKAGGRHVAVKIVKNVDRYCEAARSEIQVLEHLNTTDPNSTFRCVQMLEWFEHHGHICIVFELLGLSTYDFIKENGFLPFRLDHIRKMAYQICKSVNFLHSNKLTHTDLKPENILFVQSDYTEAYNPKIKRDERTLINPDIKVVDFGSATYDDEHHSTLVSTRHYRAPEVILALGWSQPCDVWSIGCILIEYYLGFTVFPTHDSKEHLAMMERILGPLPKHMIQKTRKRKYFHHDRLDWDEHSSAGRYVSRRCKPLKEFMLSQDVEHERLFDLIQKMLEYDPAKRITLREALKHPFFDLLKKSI
T8 sequence (P48736 whole entry): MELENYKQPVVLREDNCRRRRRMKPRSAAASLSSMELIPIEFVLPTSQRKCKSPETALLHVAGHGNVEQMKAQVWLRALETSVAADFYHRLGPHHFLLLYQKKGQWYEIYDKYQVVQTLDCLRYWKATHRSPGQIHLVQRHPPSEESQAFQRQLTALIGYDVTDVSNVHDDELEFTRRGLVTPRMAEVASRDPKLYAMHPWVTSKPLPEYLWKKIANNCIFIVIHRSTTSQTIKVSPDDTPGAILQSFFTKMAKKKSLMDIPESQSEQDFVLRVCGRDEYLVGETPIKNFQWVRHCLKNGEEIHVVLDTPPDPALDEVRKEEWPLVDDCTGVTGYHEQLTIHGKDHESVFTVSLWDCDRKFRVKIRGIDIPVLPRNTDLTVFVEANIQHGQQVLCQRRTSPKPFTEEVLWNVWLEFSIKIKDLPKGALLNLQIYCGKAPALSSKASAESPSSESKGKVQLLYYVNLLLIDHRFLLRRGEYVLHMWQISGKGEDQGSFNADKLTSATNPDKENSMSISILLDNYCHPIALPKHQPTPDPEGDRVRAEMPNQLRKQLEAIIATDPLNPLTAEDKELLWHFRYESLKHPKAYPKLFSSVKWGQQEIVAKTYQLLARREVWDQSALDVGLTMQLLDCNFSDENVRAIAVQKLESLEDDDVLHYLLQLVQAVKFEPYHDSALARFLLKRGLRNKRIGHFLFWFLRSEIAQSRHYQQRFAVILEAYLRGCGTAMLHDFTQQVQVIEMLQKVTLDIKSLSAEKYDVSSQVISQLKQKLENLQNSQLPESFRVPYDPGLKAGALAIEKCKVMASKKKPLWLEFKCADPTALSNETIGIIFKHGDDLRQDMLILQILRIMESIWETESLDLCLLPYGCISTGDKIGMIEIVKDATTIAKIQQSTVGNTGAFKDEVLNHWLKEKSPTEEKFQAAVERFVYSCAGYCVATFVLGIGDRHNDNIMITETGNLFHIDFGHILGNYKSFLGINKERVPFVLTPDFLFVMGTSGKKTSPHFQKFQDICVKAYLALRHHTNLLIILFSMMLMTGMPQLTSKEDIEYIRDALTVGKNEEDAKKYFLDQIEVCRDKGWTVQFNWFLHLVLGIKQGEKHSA
T2 sequence (Q9NYL2 whole entry): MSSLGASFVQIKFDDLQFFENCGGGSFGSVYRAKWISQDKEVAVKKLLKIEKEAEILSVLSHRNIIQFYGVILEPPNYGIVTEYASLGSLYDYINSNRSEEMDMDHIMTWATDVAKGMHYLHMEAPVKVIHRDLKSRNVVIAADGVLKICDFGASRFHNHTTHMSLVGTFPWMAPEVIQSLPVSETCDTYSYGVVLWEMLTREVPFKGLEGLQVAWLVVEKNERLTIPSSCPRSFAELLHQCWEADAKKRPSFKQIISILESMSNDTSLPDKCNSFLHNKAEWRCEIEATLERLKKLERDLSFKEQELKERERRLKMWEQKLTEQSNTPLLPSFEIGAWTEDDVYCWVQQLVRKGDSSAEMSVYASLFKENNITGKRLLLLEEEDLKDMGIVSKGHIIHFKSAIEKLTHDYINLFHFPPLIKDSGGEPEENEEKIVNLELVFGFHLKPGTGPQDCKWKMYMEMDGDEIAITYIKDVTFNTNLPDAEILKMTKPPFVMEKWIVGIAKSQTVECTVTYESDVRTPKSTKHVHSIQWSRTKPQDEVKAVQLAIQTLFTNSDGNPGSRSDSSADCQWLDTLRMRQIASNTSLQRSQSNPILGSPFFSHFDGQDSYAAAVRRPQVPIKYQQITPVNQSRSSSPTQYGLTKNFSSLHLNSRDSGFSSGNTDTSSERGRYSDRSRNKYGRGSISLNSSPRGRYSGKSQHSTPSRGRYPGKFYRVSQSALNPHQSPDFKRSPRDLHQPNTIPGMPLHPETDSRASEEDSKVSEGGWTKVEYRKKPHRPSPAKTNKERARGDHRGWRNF
T1 sequence (Q13131 whole entry): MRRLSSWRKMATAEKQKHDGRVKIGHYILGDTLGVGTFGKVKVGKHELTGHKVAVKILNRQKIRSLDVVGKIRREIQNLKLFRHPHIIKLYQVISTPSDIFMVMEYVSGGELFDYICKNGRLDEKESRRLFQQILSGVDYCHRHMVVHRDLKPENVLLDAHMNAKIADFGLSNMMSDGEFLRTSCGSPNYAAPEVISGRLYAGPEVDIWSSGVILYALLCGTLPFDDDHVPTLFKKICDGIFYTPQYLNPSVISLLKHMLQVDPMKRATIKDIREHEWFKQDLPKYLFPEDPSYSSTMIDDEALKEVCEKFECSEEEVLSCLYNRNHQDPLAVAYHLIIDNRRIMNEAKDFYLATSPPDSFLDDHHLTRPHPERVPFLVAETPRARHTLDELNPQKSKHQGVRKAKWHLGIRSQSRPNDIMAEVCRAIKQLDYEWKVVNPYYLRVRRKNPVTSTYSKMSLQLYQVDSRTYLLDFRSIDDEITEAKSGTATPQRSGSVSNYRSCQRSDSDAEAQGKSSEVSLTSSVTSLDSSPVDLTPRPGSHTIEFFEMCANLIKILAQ
T13 sequence (Q9BUB5 whole entry): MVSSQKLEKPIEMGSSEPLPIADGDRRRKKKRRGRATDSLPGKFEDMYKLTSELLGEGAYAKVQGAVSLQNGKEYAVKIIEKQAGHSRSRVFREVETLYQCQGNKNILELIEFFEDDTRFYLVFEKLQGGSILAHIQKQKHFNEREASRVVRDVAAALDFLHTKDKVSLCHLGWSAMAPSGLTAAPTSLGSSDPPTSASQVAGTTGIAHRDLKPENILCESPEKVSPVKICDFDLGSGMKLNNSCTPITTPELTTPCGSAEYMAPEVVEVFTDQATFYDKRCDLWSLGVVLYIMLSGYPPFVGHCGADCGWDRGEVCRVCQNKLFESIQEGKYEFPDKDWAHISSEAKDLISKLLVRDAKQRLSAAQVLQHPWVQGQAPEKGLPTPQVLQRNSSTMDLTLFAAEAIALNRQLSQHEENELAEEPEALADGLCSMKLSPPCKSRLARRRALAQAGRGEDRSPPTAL
T11 sequence (P07949 29-1114 M918T): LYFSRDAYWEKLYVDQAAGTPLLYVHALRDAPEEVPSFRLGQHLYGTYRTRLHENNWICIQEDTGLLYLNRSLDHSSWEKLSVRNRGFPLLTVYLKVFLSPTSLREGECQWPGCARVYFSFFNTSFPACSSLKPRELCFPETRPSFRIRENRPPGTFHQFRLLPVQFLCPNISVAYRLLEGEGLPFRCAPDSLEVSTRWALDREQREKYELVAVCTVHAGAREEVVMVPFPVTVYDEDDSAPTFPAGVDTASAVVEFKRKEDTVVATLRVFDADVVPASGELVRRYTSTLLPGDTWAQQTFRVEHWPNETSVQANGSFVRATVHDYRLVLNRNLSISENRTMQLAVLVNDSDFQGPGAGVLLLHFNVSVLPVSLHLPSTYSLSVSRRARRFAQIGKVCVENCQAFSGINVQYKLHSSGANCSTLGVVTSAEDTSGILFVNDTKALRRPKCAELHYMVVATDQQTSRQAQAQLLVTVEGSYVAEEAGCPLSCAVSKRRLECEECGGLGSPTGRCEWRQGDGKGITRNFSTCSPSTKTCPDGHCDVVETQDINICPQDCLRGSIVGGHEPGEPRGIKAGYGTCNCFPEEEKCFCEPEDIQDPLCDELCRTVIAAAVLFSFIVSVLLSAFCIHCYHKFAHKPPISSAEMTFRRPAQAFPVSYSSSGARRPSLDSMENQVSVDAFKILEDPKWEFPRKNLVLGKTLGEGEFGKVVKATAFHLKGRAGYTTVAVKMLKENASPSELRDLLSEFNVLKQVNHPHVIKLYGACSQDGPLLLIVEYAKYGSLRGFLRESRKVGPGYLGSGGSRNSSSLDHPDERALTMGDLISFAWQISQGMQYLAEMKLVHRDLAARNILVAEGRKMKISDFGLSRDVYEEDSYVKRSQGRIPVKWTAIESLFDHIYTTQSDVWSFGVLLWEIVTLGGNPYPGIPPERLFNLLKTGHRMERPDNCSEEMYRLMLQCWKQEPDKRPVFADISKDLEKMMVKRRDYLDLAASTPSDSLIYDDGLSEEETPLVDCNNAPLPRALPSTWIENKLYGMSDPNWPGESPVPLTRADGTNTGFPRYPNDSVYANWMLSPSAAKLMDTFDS
T7 sequence (Q8TDR2 whole entry): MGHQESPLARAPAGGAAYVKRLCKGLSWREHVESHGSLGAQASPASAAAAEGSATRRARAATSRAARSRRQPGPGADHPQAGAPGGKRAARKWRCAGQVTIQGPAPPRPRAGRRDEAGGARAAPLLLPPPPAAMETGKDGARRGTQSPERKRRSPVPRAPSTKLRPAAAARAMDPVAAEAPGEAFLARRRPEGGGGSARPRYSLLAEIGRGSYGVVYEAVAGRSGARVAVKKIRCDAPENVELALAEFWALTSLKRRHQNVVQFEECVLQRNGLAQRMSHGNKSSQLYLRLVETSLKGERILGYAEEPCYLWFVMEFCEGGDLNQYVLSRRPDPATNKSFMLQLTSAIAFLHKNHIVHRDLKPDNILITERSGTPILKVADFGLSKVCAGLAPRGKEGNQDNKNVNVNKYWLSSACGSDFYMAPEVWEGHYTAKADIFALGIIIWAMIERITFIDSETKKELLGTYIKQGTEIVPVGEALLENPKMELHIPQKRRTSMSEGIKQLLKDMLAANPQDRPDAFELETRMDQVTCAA

With `CNc1nc(Nc2ccc(S(=O)(=O)N3CCC(N4CCOCC4)CC3)cc2OC)nc2[nH]cc(Cl)c12` [Compound 12, 5-chloro-N2-(2-methoxy-4-((4-morpholinopiperidin-1-yl)sulfonyl)phenyl)-N4-methyl-7H-pyrrolo[2,3-d]pyrimidine-2,4-diamine], the remaining binding at 1 µM came out at 100% in test [1]; 100% in test [2]; 100% in [3]; 100% in test [4]; 98% in test [5]; 6.1% in test [6]. The remaining binding at 1 µM came to 100% in test [7]; 95% in test [8]; 98% in [9]; 100% in [10]; 100% in test [11]; 100% in [12]. Besides, in [13], the remaining binding at 1 µM amounted to 100%.
Consider `CNc1nc(Nc2ccc(C(=O)N3CCC(N4CCOCC4)CC3)c3c2OCO3)nc2[nH]cc(Cl)c12` [Compound 75, (7-((5-chloro-4-(methylamino)-7H-pyrrolo[2,3-d]pyrimidin-2-yl)amino)benzo[d][1,3]dioxol-4-yl)(4-morpholinopiperidin-1-yl)methanone], for which the remaining binding at 1 µM in test [1] came to 89%; in test [2] it was 100%; in [3] it was 30%; in test [4], 100%; in test [5] it was 81%; in test [6] it was 3.4%. Also, the remaining binding at 1 µM in [7] is 100%; in test [8] it was 100%; in [9] it was 47%; in [10], 98%; in test [11], 90%; in test [12], 100%. Moreover, the remaining binding at 1 µM in test [13] was found to be 100%.
For the molecule `CNc1nc(Nc2ccc(P3(=O)CCN(C4CCOCC4)CC3)cc2OC)nc2[nH]cc(Cl)c12` [Compound 77, 4-(4-((5-chloro-4-(methylamino)-7H-pyrrolo[2,3-d]pyrimidin-2-yl)amino)-3-methoxyphenyl)-1-(tetrahydro-2H-pyran-4-yl)-1,4-azaphosphinane 4-oxide], the remaining binding at 1 µM amounted to 93% in test [1]; 100% in test [2]; 85% in test [3]; 100% in [4]; 100% in test [5]; 7.1% in test [6]. Besides, the remaining binding at 1 µM in test [7] stood at 100%; in test [8] it was 100%; in [9], 89%; in [10], 100%; in test [11] it was 94%; in test [12], 100%. In addition, the remaining binding at 1 µM in [13] was 100%.
